Reference: publication PMC4153677, “Probing the Activity Modification Space of the Cysteine Peptidase Cathepsin K with Novel Allosteric Modifiers” (PLoS ONE, 2014)

Assays:
Type in all cases: biochemical
[1] = biological target: T1, Recombinant human cathepsin K (Homo sapiens, UniProt P43235); test: Kinetic measurements, hydrolysis of the fluorogenic substrate Z-FR↓AMC (general modifier mechanism); design: key to α (coefficient, effect of modifier on the affinity for the substrate) / β (coefficient, effect of modifier on the catalytic rate): dimensionless coefficients multiplying KS (α) and kcat (β); settings: for Z-FRAMC: geometric mean of residual activities (vA): at 0.1×Km and 10×Km substrate, modifier 10×KA, calculated with Equation 1 from α and β of Table 3, unmodified enzyme = 1.00; for β (coefficient, effect of modifier on the catalytic rate) / Kd / α (coefficient, effect of modifier on the affinity for the substrate) / Kinetic mechanism of modification: substrate Z-FR↓AMC; for β (coefficient, effect of modifier on the catalytic rate) / Kd / α (coefficient, effect of modifier on the affinity for the substrate): pH 5.50, 25°C, 0.5 nM enzyme; for Kd: read-out: K A (equilibrium dissociation constant of the EA complex); for Kinetic mechanism of modification: from combinations of α and β
T1 construct: made in house
T1 sequence (P43235 115-329): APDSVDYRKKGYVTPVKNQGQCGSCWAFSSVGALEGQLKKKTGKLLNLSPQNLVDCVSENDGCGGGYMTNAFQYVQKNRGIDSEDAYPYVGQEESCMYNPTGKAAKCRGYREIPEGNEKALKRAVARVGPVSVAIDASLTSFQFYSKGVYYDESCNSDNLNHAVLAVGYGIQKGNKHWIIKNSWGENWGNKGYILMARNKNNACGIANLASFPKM
Protocol: All modifiers were tested for their effect on the hydrolysis of the low molecular mass synthetic substrate Z-FR↓AMC. Since all progress curves were linear from the beginning of the reaction, initial velocities were calculated from the slopes by linear regression. […] The basic mechanism considered for the analysis of the interactions was the general modifier mechanism shown in Figure 2, in which the effect of modifier is determined by the values of the coefficients α and β that multiply the kinetic parameters K S, K A (α) and k cat (β). In the thermodynamic box embodied in Figure 2, the reciprocal of the coefficient α represents the allosteric coupling constant that characterizes energy linkage between the modifier and the substrate, while a […] represents the effect exerted by the modifier on catalysis. The specific velocity plot was used for the primary screening of the kinetic behavior of the modifiers (Equation 2), as it allows an immediate judgment of the type of interaction and to gather preliminary estimates of the coefficients α and β, as well as of the dissociation constant of the modifier. Refinement was then performed by fitting the rate Equation 1 to data.
Figure 3 Kinetic mechanisms of the identified modifiers. All compounds were characterized by a combination of specific velocity plots (upper panels) and titration curves recorded at fixed substrate concentrations (lower panels). All experiments were performed at 25±1°C in 100 mM sodium acetate buffer pH 5.50 containing 1 mM EDTA and 2.5 mM DTT using the fluorogenic substrate Z-FR↓AMC and at a final enzyme concentration of 0.5 nM.
All kinetic measurements were performed in 100 mM sodium acetate buffer pH 5.50 containing 1 mM EDTA and 2.5 mM dithiothreitol (DTT) in single-use acrylic cuvettes (1×1 cm) thermostatted at 25±1°C with magnetic stirring. The hydrolysis of Z-FR↓AMC was followed fluorometrically at λex 383 nm and λem 455 nm. All tested modifiers were analyzed spectroscopically to determine their absorption properties under the conditions used in the assays. When necessary, appropriate corrections were made to the calculated reaction rates to take into account the inner filter effect.
The effects of the modifiers on enzymatic activity were analyzed with the general modifier mechanism which describes the interaction between enzyme (E), substrate (S) and modifier (A), as shown in Figure 2. Assuming that binding of A to E and ES is at quasi-equilibrium and that steady-state conditions are established in the fluxes around ES and ESA (i.e. the catalytic steps), the reaction rate for the mechanism in Figure 2 is defined by Equation 1: [drawing 2] (1) where v 0 is the reaction rate in the absence of modifier, K A is the equilibrium dissociation constant of the EA complex, α and β are dimensionless coefficients and σ = [S]/K m, approximated to [S]/K s. To determine the mechanism of interaction, plot the kinetic data and calculate preliminary values of the interaction parameters, the specific velocity plot was used. For this purpose, Equation 1 is rewritten as:
The plot of v 0/v A versus σ/(1+σ) produces straight lines with intersection points at v 0/v A = 1, regardless of the interaction mechanism. The parameters α, β and K A are determined by replotting the extrapolated values of the straight lines at σ/(1+σ) = 0 (a) and σ/(1+σ) = 1 (b) versus 1/[A] in the form: [drawing 4] (3) [drawing 5] (4)

[2] = biological target: T1, Recombinant human cathepsin K; test: Azocasein degradation assays; settings: for IC 50 relative to K A: azocasein IC50 versus K A with Z-FR↓AMC; for IC50: azocasein degradation; for remaining activity: pH 5.5, substrate azocasein 3 mg/ml, 0.1 µM cathepsin K, 30 min 37°C, pH 5.50, read-out: Residual activity; for remaining activity / Effect on azocasein degradation: compounds up to 2 mM (compound 2: 1 mM); for azocasein: fraction of residual enzyme activity: value of 1 equals the activity of unmodified enzyme, activity modification matrix
Excerpt: Figure 4 Effect of modifiers on the degradation of macromolecular substrates. (A) Effect of increasing concentrations of compounds 1 and 2 on the degradation of calf skin collagen. Molecular mass standards are given in kDa and positions of α, β and γ chains of intact collagen are marked by arrows. (B) Effect of modifiers on azocasein degradation. (C) Effect of glycosaminoglycans and clusterin on azocasein degradation. Two different concentrations of each glycosaminoglycan were used in the experiments (10 µg/ml and 200 µg/ml). Error bars in panels B and C represent the SEM of three experiments. All experiments were performed in 100 mM sodium acetate buffer pH 5.50 containing 1 mM EDTA and 5 mM DTT, as described in detail in the Materials and Methods section. Abbreviations: CPD – compound, CS – chondroitin sulfate, DS – dermatan sulfate, HP – heparin.
Azocasein (Sigma-Aldrich, USA) was dissolved in 100 mM sodium acetate buffer pH 5.50 containing 1 mM EDTA and 5 mM DTT at a concentration of 3 mg/ml. Samples were incubated with 0.1 µM cathepsin K for 30 min at 37°C in the presence of each compound. […] Reactions were stopped by addition of trichloroacetic acid (final concentration 5% v/v), centrifuged, clear supernatants mixed with 0.5 M NaOH and the concentrations of solubilized peptides determined by measuring the absorbance at 440 nm. All experiments were performed in triplicates and appropriate blanks were run to take into account the absorption of azocasein and compounds alone. IC 50 values were determined as described previously.

[3] = biological target: T1, Recombinant human cathepsin K; test: Collagenolytic assays (calf skin collagen, SDS-PAGE); design: key to collagen: qualitative value: qualitative values of 1 and 0 were used to signify inhibition and lack thereof, respectively; qualitative values of 1 and 0 were used to signify inhibition and lack thereof, respectively; a value of -1 was used to describe the concentration-dependent roles of glycosaminoglycans; settings: for collagen: qualitative value: activity modification matrix
Protocol: The use of synthetic substrates is practical for the determination of the mechanisms of modification. […] Therefore, all modifiers were also tested with two macromolecular substrates, calf skin collagen and azocasein. The collagenolytic activity was tested quantitatively by following the fragmentation of the characteristic type I collagen pattern into smaller products on SDS-PAGE after incubation of the samples with cathepsin K in the presence and absence of modifiers.
Soluble calf skin collagen (Worthington Biochemical Corporation, USA) was diluted in 100 mM sodium acetate buffer pH 5.50 containing 1 mM EDTA and 5 mM DTT to a final concentration of 0.5 mg/ml. Experiments were started by addition of cathepsin K (final enzyme concentration 0.6 µM) to the reaction mixture containing collagen and increasing concentrations of modifier. All assays were performed at 28°C with shaking on an Eppendorf Thermomixer Comfort. Samples were incubated for 2 hours and the reactions then blocked by addition of E-64 to a final concentration of 1 µM. 10 µg of digested collagen were analyzed by SDS-PAGE on 8% polyacrylamide gels and protein bands visualized by Coomassie Brilliant Blue R-250 staining.

[4] = biological target: T1, Recombinant human cathepsin K; test: Thermal stability of cathepsin K at pH 7.4 in the presence of modifiers; settings: for stability: ln(sf), sf = ratio of half-lives in the presence and absence of modifier: 37 °C and pH 7.4
Protocol: Cathepsin K was incubated at 37°C in 50 mM Hepes buffer pH 7.40 containing 1 mM EDTA and 5 mM DTT in the presence or absence of each modifier. The final enzyme concentration was 0.2 µM and final compounds concentrations were 2 mM, except compound 2, which was used at a concentration of 1 mM. All experiments were performed in Eppendorf Protein LoBind Tubes to minimize the adsorption of proteins on tube walls. Aliquots were withdrawn from the reaction mixtures at regular time intervals and their residual activity measured using the substrate Z-FR↓AMC (5 µM final concentration). Inactivation curves had exponential profiles that were fitted with the mathematical model for one-phase exponential decay to determine the half-life of the enzyme in each reaction mixture.

[5] = substrate calf skin collagen 0.5 mg/ml, 0.6 µM cathepsin K, 2 hours 28°C, pH 5.50, estimated

| Compound | Z-FRAMC: geometric mean of residual activities (vA) [1] | β (coefficient, effect of modifier on the catalytic rate) [1] | Kd [1] [µM] | IC 50 relative to K A [2] | IC50 [2] [µM] | remaining activity [2] [%] | azocasein: fraction of residual enzyme activity [2] | collagen: qualitative value [3] | stability: ln(sf), sf = ratio of half-lives in the presence and absence of modifier [4] | α (coefficient, effect of modifier on the affinity for the substrate) [1] | IC50 [3, 5] | Effect on azocasein degradation [2] | Kinetic mechanism of modification [1] | further results |
| --- | --- | --- | --- | --- | --- | --- | --- | --- | --- | --- | --- | --- | --- | --- |
| NCC1CCN(CCc2ccccc2)CC1 [Compound 6, 1-[1-(2-Phenylethyl)-4-piperidinyl]-methanamine] | 0.65 | 1 | 270 ± 50 | about 4 fold | 1100 ± 240 | 77 ± 8 | 0.77 | 0 | 0.18 | 3.0±0.2 | n.i. |  | hyperbolic competitive inhibitor |  |
| O=C(O)c1ccccc1C(=O)Nc1cccc([N+](=O)[O-])c1 [Compound 7, 2-[(3-Nitrophenyl)carbamoyl]benzoic acid] | 0.48 | 0.19±0.03 | 290 ± 20 |  |  | 104 ± 5 | 1.01 | 0 | 0.47 | 0.19±0.03 | n.i. | ineffective | hyperbolic mixed inhibitors with uncompetitive character | α (coefficient, effect of modifier on the affinity for the substrate) ([1]; listed as compound 7): < 1; β (coefficient, effect of modifier on the catalytic rate) ([1]; listed as compound 7): < 1 |
| COC(=O)CNC1CC(=O)N(c2ccc(OC)cc2)C1=O (stereo not drawn) [Compound 8, Methyl N-[1-(4-methoxyphenyl)-2,5-dioxopyrrolidin-3-yl]glycinate] | 0.60 | 0.31±0.06 | 1100 ± 200 |  |  | 101 ± 3 | 1.04 | 0 | 0.02 | 0.31±0.06 | n.i. | ineffective | hyperbolic mixed inhibitors with uncompetitive character | α (coefficient, effect of modifier on the affinity for the substrate) ([1]; listed as compound 8): < 1; β (coefficient, effect of modifier on the catalytic rate) ([1]; listed as compound 8): < 1 |

Now those with a lower Kd [1], led by results:

| Z-FRAMC: geometric mean of residual activities (vA) [1] | β (coefficient, effect of modifier on the catalytic rate) [1] | Kd [1] [µM] | IC 50 relative to K A [2] | IC50 [2] [µM] | remaining activity [2] [%] | azocasein: fraction of residual enzyme activity [2] | collagen: qualitative value [3] | stability: ln(sf), sf = ratio of half-lives in the presence and absence of modifier [4] | α (coefficient, effect of modifier on the affinity for the substrate) [1] | IC50 [3, 5] | Effect on azocasein degradation [2] | Compound | Kinetic mechanism of modification [1] | further results |
| --- | --- | --- | --- | --- | --- | --- | --- | --- | --- | --- | --- | --- | --- | --- |
| 0.37 | 0.55±0.25 | 190 ± 20 | about 4 fold | 730 ± 190 | 74 ± 9 | 0.74 | 1 | 0.74 |  |  |  | Nc1cc(C(=O)O)ccc1NCC1CCCO1 (stereo not drawn) [Compound 1, 3-Amino-4-[(tetrahydro-2-furanylmethyl)amino] benzoic acid] |  | Effect on degradation of calf skin collagen ([3]; SDS-PAGE, increasing concentrations of modifier): concentration-dependent inhibitory effect; IC50 ([3]; degradation of calf skin collagen, read-out: IC 50 (estimated)): ~1000 µM; IC50 ([3]; substrate calf skin collagen 0.5 mg/ml, 0.6 µM cathepsin K, 2 hours 28°C, pH 5.50, estimated, read-out: IC 50): 1000 µM; Increase of stability (half-life) of cathepsin K ([4]; pH 7.4, 37°C, versus enzyme only): about 2 fold |
| 0.42 |  | 110 ± 20 |  |  | 86 ± 4 |  | 0 | 0.26 | 1.7±0.5 | n.i. |  | O=C(Nc1ccc(C(=O)O)c(O)c1)c1ccccc1 [Compound 3, N-Benzoyl-p-aminosalicylic acid] |  |  |
| 0.70 | 1.5±0.3 | 100 ± 40 |  |  | 90 ± 3 |  | 0 | 0.41 | 5.6±1.2 | n.i. |  | O=C(O)C(Cc1ccccc1-c1ccccc1)C(=O)O [Compound 4, (2-Biphenylylmethyl) malonic acid] | hyperbolic mixed modifiers with a dual behavior as inhibitors or activators depending on substrate concentration | α (coefficient, effect of modifier on the affinity for the substrate) ([1]; listed as compound 4): > 1; β (coefficient, effect of modifier on the catalytic rate) ([1]; listed as compound 4): > 1 |
